Columns and labels:
[1] = test system: E. coli GFP; assay: Antibiotic susceptibility of bulky bacteria on agar plates (E-test); type: cell-based, Escherichia coli (ATCC 25922 GFP)
Description: (§1) Escherichia coli (E. coli) (ATCC 25922 GFP™) was chosen as a model bacterium. Ampicillin and gentamicin were chosen as model antibiotic drugs. The operational parameters were optimized to isolate 0 or 1 bacterium in each chamber. For the determination of minimum inhibitory concentration (MIC), fluorescence intensity of the sample was measured via inverted fluorescence microscope at 2 hours intervals, during 6 hours of incubation in a temperature-controlled chamber at 37° C. The time-dependent morpho-structural variabilities of bacterium were characterized by a software. […] 0.25 μg/ml GM inhibits bulky E. coli GFP growth on agar plates and microfluidic chip. On the contrary, 0.1 μg/ml GM inhibits growth of ˜90% E. coli GFP in the microfluidic chip, and resistant subpopulation continue growing after 4 h. The present invention shed light on breakthrough development in bacterial resistance research and rapid drug testing applications.
The multi-parametric motion-analysis incorporating line length, elongation ratio, circularity, line speed, path speed and intensity are found useful for the identification of resistance and susceptibility of E. coli in 4 hours. […] However, resistant subpopulation continues growing after 4 h.

[2] = test system: E. coli GFP; assay: Antibiotic susceptibility testing in the microfluidic chip (fluorescence, MIC determination); type: cell-based, Escherichia coli (ATCC 25922 GFP)
Description: as §1, with “applications. […]” for “applications.”
Step 3, The morpho-structural changes and Dynamic phenotypic analysis of bacterium were evaluated by microscopy methods. […] In this and the following examples, E. coli is monitored during the first 6 hours and after 21 hours of incubation at 37° C. inside a temperature-controlled chamber placed on the microscope-stage. […]

Substance: gentamicin [GM]
- concentration that inhibits bulky E. coli GFP growth (MIC) [1]: 0.25 µg/mL
- share of E. coli GFP whose growth is inhibited ([2]; 0.1 μg/ml GM, resistant subpopulation continues growing after 4 h): ~90%
- concentration that inhibits bulky E. coli GFP growth (MIC) ([2]; bulky bacteria, 37° C., 6 hours incubation): 0.25 µg/mL

Reference: US20240384321A1, “Microfluidic chip and use thereof for continuous monitoring of bacterium intended for motion, growth and morphology detection” (National Health Research Institutes, priority 2023, published 2024)
